For one test, the target named is T1, 5HT2B receptors (Homo sapiens, UniProt P41595).
T1 construct: expressed in transfected cells; host or cells: CHO-K1 cells
Description: Human 5-HT2B functional high throughput screening assay in CHO-K1 cells (calcium flux). The note with it: for pEC50: CHO-K1 cells, calcium flux. The test is classed as cell-based. Put shortly: (§1)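 FLIPR calcium readout, ex 480/em 530 nm, 25 °C, 3 min post-addition; agonist response normalized to serotonin, 4-parameter fit → EC50, Emax (% serotonin). Cells: frozen CHO-K1 stable lines, serum-free overnight, Ca4 dye + 2.5 mM probenecid, 60 min RT dark.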
(A change in cytosolic calcium serves as a functional read-out for many receptors and channels.)

The target of a further test is T2, 5HT2C receptors (Homo sapiens, UniProt P28335).
T2 sequence (P28335 33-458): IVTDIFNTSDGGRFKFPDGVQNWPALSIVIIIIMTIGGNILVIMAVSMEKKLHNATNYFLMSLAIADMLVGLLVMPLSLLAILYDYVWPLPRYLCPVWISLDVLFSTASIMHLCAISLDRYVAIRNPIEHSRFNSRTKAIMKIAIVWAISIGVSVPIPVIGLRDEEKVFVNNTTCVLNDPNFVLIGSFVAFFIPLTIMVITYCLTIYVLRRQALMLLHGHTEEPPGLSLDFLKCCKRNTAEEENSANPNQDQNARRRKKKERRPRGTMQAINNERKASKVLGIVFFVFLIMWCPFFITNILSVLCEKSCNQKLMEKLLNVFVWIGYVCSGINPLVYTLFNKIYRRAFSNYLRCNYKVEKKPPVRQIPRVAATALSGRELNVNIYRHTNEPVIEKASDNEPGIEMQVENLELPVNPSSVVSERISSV
Description: Human 5-HT2C functional high throughput screening assay in CHO-K1 cells (calcium flux). The test is classed as cell-based. The note with it: for Emax: CHO-K1, 5-HT2C, maximum functional response as percentage relative to the effect of serotonin; for pEC50: CHO-K1 cells, calcium flux. Further details: expressed in transfected cells; host or cells: CHO-K1 cells; call rule not given here. The gist of the method:
as §1

The mark [1] stands for this setting: 5-HT2B, maximum functional response as percentage relative to the effect of serotonin.
Where [2] appears, read: 5-HT2B agonist activity, read-out: EC50.
Setting [3] is: CHO-K1, 5-HT2B, maximum functional response as percentage relative to the effect of serotonin, read-out: Emax.
[4] abbreviates: 5-HT2C agonist activity, read-out: EC50.

Broadly, the Emax is the maximal effect, on the per cent scale that the assay sets. For orientation: pEC50 means the EC50 on a negative log10 scale, so that one unit is a factor of ten.

Structures are written as SMILES. pEC50: −log10 of the molar value. Like-named read-outs stand apart in the source and are kept apart here. Where only a bound is given, the exact number is not on record here.

T1 sequence (P41595 whole entry): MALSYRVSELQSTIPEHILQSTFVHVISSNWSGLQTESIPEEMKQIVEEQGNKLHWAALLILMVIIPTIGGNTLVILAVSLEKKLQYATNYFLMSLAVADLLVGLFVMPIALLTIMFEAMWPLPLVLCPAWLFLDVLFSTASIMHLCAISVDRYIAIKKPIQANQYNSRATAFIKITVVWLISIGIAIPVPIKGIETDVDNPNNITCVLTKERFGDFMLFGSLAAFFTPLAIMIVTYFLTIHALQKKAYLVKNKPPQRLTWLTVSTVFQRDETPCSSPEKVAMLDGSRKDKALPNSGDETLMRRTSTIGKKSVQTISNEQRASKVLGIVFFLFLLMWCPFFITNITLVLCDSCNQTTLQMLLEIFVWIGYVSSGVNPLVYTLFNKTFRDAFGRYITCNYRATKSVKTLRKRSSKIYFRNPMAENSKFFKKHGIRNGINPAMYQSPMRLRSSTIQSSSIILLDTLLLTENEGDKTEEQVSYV

Regarding `O=S(=O)(c1ccccc1)N1Cc2cccnc2[C@@H]2CNC[C@H]2C1` (relative stereo) [Example 338, Trans-6-(phenylsulfonyl)-5,6,7,7a,8,9,10,10a-octahydropyrido[3,2-c]pyrrolo[3,4-e]azepine], the Emax at 5HT2B receptors (CHO-K1) stood at 20%; on 5HT2C receptors, 80%. In addition, the pEC50 is 6.10 at 5HT2B receptors (EC50, 5-HT2B agonist activity) and 7.00 at 5HT2C receptors (EC50, 5-HT2C agonist activity).

For `O=S(=O)(c1ccc(Cl)s1)N1Cc2cccnc2[C@@H]2CNC[C@H]2C1` (relative stereo) [Example 339, Trans-6-[(5-chloro-2-thienyl)sulfonyl]-5,6,7,7a,8,9,10,10a-octahydropyrido[3,2-c]pyrrolo[3,4-e]azepine], the Emax result at 5HT2B receptors (setting [1]) is “inactive”; at 5HT2C receptors, 110%. Besides, the negative-log EC50 (pEC50) on 5HT2B receptors (EC50, 5-HT2B agonist activity) was below 5.00; at 5HT2C receptors (EC50, 5-HT2C agonist activity) it was 7.52.

For `O=S(=O)(c1ccc(Cl)cc1)N1Cc2cccnc2[C@@H]2CNC[C@H]2C1` (relative stereo) [Example 340, Trans-6-[(4-chlorophenyl)sulfonyl]-5,6,7,7a,8,9,10,10a-octahydropyrido[3,2-c]pyrrolo[3,4-e]azepine], the Emax result was “inactive” on 5HT2B receptors (setting [1]) and 90% on 5HT2C receptors. The pEC50 at 5HT2B receptors (EC50, 5-HT2B agonist activity) is below 5.00; at 5HT2C receptors (EC50, 5-HT2C agonist activity) it was 7.15.

Take `Cc1ccccc1S(=O)(=O)N1Cc2cccnc2[C@@H]2CNC[C@H]2C1` (relative stereo) [Example 341, Trans-6-[(2-methylphenyl)sulfonyl]-5,6,7,7a,8,9,10,10a-octahydropyrido[3,2-c]pyrrolo[3,4-e]azepine]: the Emax on 5HT2B receptors (CHO-K1) is 65%; at 5HT2C receptors, 90%. For the same compound, the pEC50 was 6.52 on 5HT2B receptors (EC50, 5-HT2B agonist activity) and 7.05 on 5HT2C receptors (EC50, 5-HT2C agonist activity).

Turning to `Cc1c(Cl)cccc1S(=O)(=O)N1Cc2cccnc2[C@@H]2CNC[C@H]2C1` (relative stereo) [Example 342, Trans-6-[(3-chloro-2-methylphenyl)sulfonyl]-5,6,7,7a,8,9,10,10a-octahydropyrido[3,2-c]pyrrolo[3,4-e]azepine], the pEC50 on 5HT2B receptors (setting [2]) was 6.52; at 5HT2C receptors (setting [4]) it was 7.22. In addition, the Emax came out at 40% at 5HT2B receptors (setting [3]) and 90% at 5HT2C receptors (read-out: Emax).

In the case of `COc1ccc(OC)c(S(=O)(=O)N2Cc3cccnc3[C@@H]3CNC[C@H]3C2)c1` (relative stereo) [Example 343, Trans-6-[(2,5-dimethoxyphenyl)sulfonyl]-5,6,7,7a,8,9,10,10a-octahydropyrido[3,2-c]pyrrolo[3,4-e]azepine], the pEC50 is 6.00 on 5HT2B receptors (setting [2]) and 6.52 at 5HT2C receptors (setting [4]). Besides, the figures for the Emax at 5HT2B receptors (setting [3]) and at 5HT2C receptors (read-out: Emax) were 60% and 85%, respectively.

`CC(C)(C)c1ccc(S(=O)(=O)N2Cc3cccnc3[C@@H]3CNC[C@H]3C2)cc1` (relative stereo) [Example 344, Trans-6-[(4-tert-butylphenyl)sulfonyl]-5,6,7,7a,8,9,10,10a-octahydropyrido[3,2-c]pyrrolo[3,4-e]azepine]: the results for the pEC50 at 5HT2B receptors (setting [2]) and at 5HT2C receptors (setting [4]) were below 5.00 and 7.05, respectively. The Emax entry on 5HT2B receptors (setting [1]) is “inactive”; on 5HT2C receptors (read-out: Emax), 85%.

`O=S(=O)(c1cccc(C(F)(F)F)c1)N1Cc2cccnc2[C@@H]2CNC[C@H]2C1` (relative stereo) [Example 345, Trans-6-{[3-(trifluoromethyl)phenyl]sulfonyl}-5,6,7,7a,8,9,10,10a-octahydropyrido[3,2-c]pyrrolo[3,4-e]azepine]: the values for the pEC50 at 5HT2B receptors (setting [2]) and at 5HT2C receptors (setting [4]) were 6.70 and 6.40, respectively. For the same compound, the Emax worked out at 90% on 5HT2B receptors (setting [3]) and 80% on 5HT2C receptors (read-out: Emax).

As for `COc1ccc(S(=O)(=O)N2Cc3cccnc3[C@@H]3CNC[C@H]3C2)cc1` (relative stereo) [Example 346, Trans-6-[(4-methoxyphenyl)sulfonyl]-5,6,7,7a,8,9,10,10a-octahydropyrido[3,2-c]pyrrolo[3,4-e]azepine], the figures for the pEC50 on 5HT2B receptors (setting [2]) and on 5HT2C receptors (setting [4]) were below 5.00 and 7.00, respectively. For the same compound, the results for the maximal response (Emax) result at 5HT2B receptors (setting [1]) and at 5HT2C receptors (read-out: Emax) were “inactive” and 85%, respectively.

On to `O=S(=O)(c1ccc(C(F)(F)F)cc1)N1Cc2cccnc2[C@@H]2CNC[C@H]2C1` (relative stereo) [Example 347, Trans-6-{[4-(trifluoromethyl)phenyl]sulfonyl}-5,6,7,7a,8,9,10,10a-octahydropyrido[3,2-c]pyrrolo[3,4-e]azepine], for which the results for the pEC50 at 5HT2B receptors (setting [2]) and at 5HT2C receptors (setting [4]) were below 5.00 and 7.05, respectively. In addition, the Emax entry on 5HT2B receptors (setting [1]) is “inactive”; on 5HT2C receptors (read-out: Emax) it was 90%.

On to `Cc1cccc(S(=O)(=O)N2Cc3cccnc3[C@@H]3CNC[C@H]3C2)c1` (relative stereo) [Example 348, Trans-6-[(3-methylphenyl)sulfonyl]-5,6,7,7a,8,9,10,10a-octahydropyrido[3,2-c]pyrrolo[3,4-e]azepine], for which the results for the Emax on 5HT2B receptors (CHO-K1) and on 5HT2C receptors were 50% and 85%, respectively. Also, the pEC50 was 6.10 at 5HT2B receptors (EC50, 5-HT2B agonist activity) and 7.15 on 5HT2C receptors (EC50, 5-HT2C agonist activity).

As to `O=S(=O)(c1ccc(OC(F)(F)F)cc1)N1Cc2cccnc2[C@@H]2CNC[C@H]2C1` (relative stereo) [Example 349, Trans-6-{[4-(trifluoromethoxy)phenyl]sulfonyl}-5,6,7,7a,8,9,10,10a-octahydropyrido[3,2-c]pyrrolo[3,4-e]azepine], the pEC50 at 5HT2B receptors (setting [2]) was below 5.00; at 5HT2C receptors (setting [4]) it was 6.70. Moreover, the Emax entry on 5HT2B receptors (setting [1]) is “inactive”; at 5HT2C receptors (read-out: Emax) it was 90%.

In the case of `CS(=O)(=O)c1cccc(-c2cccc3c2OCC[C@H]2CNC[C@H]32)c1` (relative stereo) [Example 350, Trans-7-[3-(methylsulfonyl)phenyl]-2,3,3a,4,5,10b-hexahydro-1H-[1]benzoxepino[4,5-c]pyrrole], the pEC50 on 5HT2B receptors (setting [2]) is below 5.00; at 5HT2C receptors (setting [4]), 6.00. Moreover, the Emax result was “inactive” at 5HT2B receptors (setting [1]) and 75% on 5HT2C receptors (read-out: Emax).

As for `CC(=O)c1cccc(-c2cccc3c2OCC[C@H]2CNC[C@H]32)c1` (relative stereo) [Example 351, 1-{3-[Trans-2,3,3a,4,5,10b-hexahydro-1H-[1]benzoxepino[4,5-c]pyrrol-7-yl]phenyl}ethanone], the pEC50 on 5HT2B receptors (setting [2]) is below 5.00; on 5HT2C receptors (setting [4]) it was 7.05. Further, the values for the Emax result at 5HT2B receptors (setting [1]) and on 5HT2C receptors (read-out: Emax) were “inactive” and 90%, respectively.

Turning to `COc1ccccc1S(=O)(=O)N1Cc2cccnc2[C@@H]2CNC[C@H]2C1` (relative stereo) [Example 354, Trans-6-[(2-methoxyphenyl)sulfonyl]-5,6,7,7a,8,9,10,10a-octahydropyrido[3,2-c]pyrrolo[3,4-e]azepine], the figures for the pEC50 on 5HT2B receptors (setting [2]) and on 5HT2C receptors (setting [4]) were 6.70 and 6.52, respectively. For the same compound, the Emax at 5HT2B receptors (setting [3]) is 95%; on 5HT2C receptors (read-out: Emax), 80%.

For `N#Cc1ccccc1S(=O)(=O)N1Cc2cccnc2[C@@H]2CNC[C@H]2C1` (relative stereo) [Example 355, 2-[Trans-7,7a,8,9,10,10a-hexahydropyrido[3,2-c]pyrrolo[3,4-e]azepin-6(5H)-ylsulfonyl]benzonitrile], the pEC50 is 5.22 on 5HT2B receptors (setting [2]) and 7.00 at 5HT2C receptors (setting [4]). The Emax on 5HT2B receptors (setting [3]) was determined as 10%; on 5HT2C receptors (read-out: Emax), 90%.

On to `Cc1ccc(S(=O)(=O)N2Cc3cccnc3[C@@H]3CNC[C@H]3C2)cc1` (relative stereo) [Example 356, Trans-6-[(4-methylphenyl)sulfonyl]-5,6,7,7a,8,9,10,10a-octahydropyrido[3,2-c]pyrrolo[3,4-e]azepine], for which the Emax at 5HT2B receptors (CHO-K1) was found to be 15%; at 5HT2C receptors it was 90%. The pEC50 at 5HT2B receptors (EC50, 5-HT2B agonist activity) was 6.00; on 5HT2C receptors (EC50, 5-HT2C agonist activity), 7.40.

With `O=S(=O)(c1ccc(F)cc1)N1Cc2cccnc2[C@@H]2CNC[C@H]2C1` (relative stereo) [Example 357, Trans-6-[(4-fluorophenyl)sulfonyl]-5,6,7,7a,8,9,10,10a-octahydropyrido[3,2-c]pyrrolo[3,4-e]azepine], the Emax result on 5HT2B receptors (setting [1]) is “inactive”; at 5HT2C receptors, 85%. The pEC50 at 5HT2B receptors (EC50, 5-HT2B agonist activity) is below 5.00; on 5HT2C receptors (EC50, 5-HT2C agonist activity), 7.00.

`O=S(=O)(c1cccs1)N1Cc2cccnc2[C@@H]2CNC[C@H]2C1` (relative stereo) [Example 358, Trans-6-(2-thienylsulfonyl)-5,6,7,7a,8,9,10,10a-octahydropyrido[3,2-c]pyrrolo[3,4-e]azepine]: the pEC50 was below 5.00 at 5HT2B receptors (setting [2]) and 6.52 at 5HT2C receptors (setting [4]). Further, the results for the Emax entry on 5HT2B receptors (setting [1]) and on 5HT2C receptors were “inactive” and 20%, respectively.

Turning to `O=S(=O)(c1cccc(Cl)c1)N1Cc2cccnc2[C@@H]2CNC[C@H]2C1` (relative stereo) [Example 359, Trans-6-[(3-chlorophenyl)sulfonyl]-5,6,7,7a,8,9,10,10a-octahydropyrido[3,2-c]pyrrolo[3,4-e]azepine], the Emax at 5HT2B receptors (CHO-K1) came out at 30%; at 5HT2C receptors, 80%. The pEC50 on 5HT2B receptors (EC50, 5-HT2B agonist activity) is 6.30; on 5HT2C receptors (EC50, 5-HT2C agonist activity), 7.00.

The values are drawn from patent publication US8846951B2 (AbbVie Inc., priority 2009, dated 2014).
